Experimental data from patent US8415351B2 (priority 2007, dated 2013).
Read-outs that look alike come from different tables or passages of the source.

How the values were obtained:
[1] = system: genotype 1a-H77 subgenomic replicon cell line; experiment: microbe, parasite or virus in culture; type: cell-based, HCV; conditions: read-out: EC50 1a
[2] = target: T1, HCV polymerase 1B (Δ21 NS5B, BK) (Hepatitis C virus genotype 1b, UniProt P26663); experiment: biochemical
T1 construct: 20 to 50 nM Δ21 NS5B
T1 sequence (P26663 2420-2989, stated change not applied): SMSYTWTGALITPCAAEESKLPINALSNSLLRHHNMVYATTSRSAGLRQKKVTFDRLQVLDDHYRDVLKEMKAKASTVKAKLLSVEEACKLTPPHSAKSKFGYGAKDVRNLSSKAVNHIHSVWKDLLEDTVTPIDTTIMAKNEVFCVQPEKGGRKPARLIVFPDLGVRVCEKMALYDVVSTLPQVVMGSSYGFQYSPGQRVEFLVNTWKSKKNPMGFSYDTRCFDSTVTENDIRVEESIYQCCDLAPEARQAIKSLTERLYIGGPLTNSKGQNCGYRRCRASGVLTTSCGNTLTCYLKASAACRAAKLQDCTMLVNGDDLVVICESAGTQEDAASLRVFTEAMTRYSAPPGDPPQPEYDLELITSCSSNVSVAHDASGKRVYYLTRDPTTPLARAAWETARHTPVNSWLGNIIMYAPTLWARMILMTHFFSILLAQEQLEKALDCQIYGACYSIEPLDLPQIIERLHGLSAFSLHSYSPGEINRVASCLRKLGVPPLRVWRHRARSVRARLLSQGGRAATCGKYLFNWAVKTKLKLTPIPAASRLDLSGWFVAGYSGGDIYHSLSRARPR
In short: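 Δ21 NS5B (genotype 1b, BK […]) preincubated 15 min RT with inhibitor, 2 mM MnCl2, pH 7.4, 60–125 μM GTP; started with 20 μM CTP/ATP, 1 μM 3H-UTP, 5 nM template RNA, run 2–4 h RT. Spermine-precipitated RNA filter-captured, scintillation counted; IC50 from tight-binding (Morrison) fit.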

[3] = target: T2, HCV polymerase 1A (Δ21 NS5B, H77) (Hepatitis C virus genotype 1a, UniProt P27958); experiment: biochemical
T2 construct: 20 to 50 nM Δ21 NS5B
T2 sequence (P27958 2421-2990, stated change not applied): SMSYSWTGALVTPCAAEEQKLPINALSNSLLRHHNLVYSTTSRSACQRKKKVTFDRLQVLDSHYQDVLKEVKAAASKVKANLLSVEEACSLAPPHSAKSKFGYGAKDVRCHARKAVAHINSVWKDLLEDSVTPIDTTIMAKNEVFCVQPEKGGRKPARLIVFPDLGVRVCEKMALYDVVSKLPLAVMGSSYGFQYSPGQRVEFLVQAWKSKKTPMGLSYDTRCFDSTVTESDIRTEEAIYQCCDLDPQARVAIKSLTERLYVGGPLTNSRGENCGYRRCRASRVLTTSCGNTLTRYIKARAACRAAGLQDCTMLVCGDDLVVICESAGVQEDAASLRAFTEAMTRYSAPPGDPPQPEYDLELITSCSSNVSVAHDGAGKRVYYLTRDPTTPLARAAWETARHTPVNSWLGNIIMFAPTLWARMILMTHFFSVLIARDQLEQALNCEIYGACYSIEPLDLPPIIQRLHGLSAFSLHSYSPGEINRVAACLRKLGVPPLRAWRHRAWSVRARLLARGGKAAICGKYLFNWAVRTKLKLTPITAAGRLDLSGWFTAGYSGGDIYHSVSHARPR
In short: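 Radiometric assay with Δ21 NS5B (H77): 20 μM CTP, 20 μM ATP, 1 μM ^3H-UTP, 5 nM template RNA, 2–4 h at room temperature. RNA precipitated with spermine, filter-captured and counted. IC50 from non-linear fit of retained cpm vs inhibitor concentration (tight-binding equation).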

[4] = system: genotype 1b-Con1 subgenomic replicon cell line; experiment: microbe, parasite or virus in culture; type: cell-based, HCV; conditions: read-out: EC50 1b
[5] = genotype 1a-H77 replicon, luciferase reporter
[6] = HCV polymerase 1b, read-out: IC50 1b
[7] = genotype 1b-Con1 replicon, luciferase reporter

Row | Compound | EC50 ([1]; Hepatitis C virus) [nM] | IC50 [2] [nM] | IC50 ([3]; IC50 1a) [nM] | EC50 ([4]; Hepatitis C virus) [nM] | EC50 [1, 5] [nM] | IC50 [2, 6] [nM] | IC50 ([3]; read-out: IC50 1a) [nM] | EC50 [4, 7] [nM]
1 | CNS(=O)(=O)Cc1ccc(NC(=O)c2cc(N3CCC(=O)NC3=O)cc(C(C)(C)C)c2OC)cc1 [IA-L3-1.31, 3-tert-butyl-5-(2,4-dioxotetrahydropyrimidin-1(2H)-yl)-2-methoxy-N-(4-(N-methylsulfamoylmethyl)phenyl)benzamide] | > 1000 | > 1000 | > 1000 | > 1000 |  |  |  | 
2 | COc1c(-c2cccc(/C=N/NS(C)(=O)=O)c2)cc(N2CCC(=O)NC2=O)cc1C(C)(C)C [IA-L0-1.7, (E)-N′-((3′-tert-butyl-5′-(2,4-dioxotetrahydropyrimidin-1(2H)-yl)-2′-methoxybiphenyl-3-yl)methylene)methanesulfonohydrazide] | > 1000 | 100 to 1000 | > 1000 | > 1000 |  |  |  | 
3 | COc1c(-c2ccc3c(c2)CC[C@@H]3CNS(C)(=O)=O)cc(-n2ccc(=O)[nH]c2=O)cc1C(C)(C)C (single isomer, unassigned) [IB-L0-2.9] | < 10 | < 10 | < 10 | < 10 |  |  |  | 
4 | CC(C)(C)c1cc(-n2ccc(=O)[nH]c2=O)cc(-c2ccc3c(CNS(C)(=O)=O)csc3c2)c1Cl [IB-L0-2.35, N-((6-(3-tert-butyl-2-chloro-5-(2,4-dioxo-3,4-dihydropyrimidin-1(2H)-yl)phenyl)benzo[b]thiophen-3-yl)methyl)methanesulfonamide] | > 1000 | 10 to 100 | 10 to 100 | 100 to 1000 |  |  |  | 
5 | COc1c(C(=O)Nc2ccccc2)cc(N2CCC(=O)NC2=O)cc1C(C)(C)C [IA-L3-1.24, 3-tert-butyl-5-(2,4-dioxotetrahydropyrimidin-1(2H)-yl)-2-methoxy-N-phenylbenzamide] | > 1000 | 100 to 1000 | 100 to 1000 | > 1000 |  |  |  | 
6 | COc1c(C(=O)Nc2ccc(N(C)S(C)(=O)=O)cc2)cc(N2CCC(=O)NC2=O)cc1C(C)(C)C [IA-L3-1.62, 3-tert-butyl-5-(2,4-dioxotetrahydropyrimidin-1(2H)-yl)-2-methoxy-N-(4-(N-methylmethylsulfonamido)phenyl)benzamide] | > 1000 | 100 to 1000 | 100 to 1000 | 100 to 1000 |  |  |  | 
7 | COc1c(C(=O)N[C@H]2CC[C@H](NS(C)(=O)=O)CC2)cc(N2CCC(=O)NC2=O)cc1C(C)(C)C [IA-L3-1.103, 3-tert-butyl-5-(2,4-dioxotetrahydropyrimidin-1(2H)-yl)-2-methoxy-N-((1r,4r)-4-(methylsulfon amido)cyclohexyl)benzamide] |  |  |  |  | > 1000 | > 1000 | 100 to 1000 | > 1000
8 | COc1c(C#Cc2ccc(NS(C)(=O)=O)cc2Cl)cc(N2CCC(=O)NC2=O)cc1C(C)(C)C [IA-L2-1.14, N-(4-((3-tert-butyl-5-(2,4-dioxotetrahydropyrimidin-1(2H)-yl)-2-methoxyphenyl)ethynyl)-3-chlorophenyl)methanesulfonamide] | < 10 | < 10 | < 10 | < 10 |  |  |  | 
9 | COc1c(-c2ccc3c(CNS(C)(=O)=O)coc3c2)cc(-n2ccc(=O)[nH]c2=O)cc1C(C)(C)C [IB-L0-2.18, N-((6-(3-tert-butyl-5-(2,4-dioxo-3,4-dihydropyrimidin-1(2H)-yl)-2-methoxyphenyl)benzofuran-3-yl)methyl)methanesulfonamide] | 100 to 1000 | 10 to 100 | < 10 | 10 to 100 |  |  |  | 
10 | COc1c(-c2ccc3c(c2)CCC3NNS(C)(=O)=O)cc(-n2ccc(=O)[nH]c2=O)cc1C(C)(C)C (centres unmarked) [IB-L0-2.31, N′-(5-(3-tert-butyl-5-(2,4-dioxo-3,4-dihydropyrimidin-1(2H)-yl)-2-methoxyphenyl)-2,3-dihydro-1H-inden-1-yl)methanesulfonohydrazide] | 100 to 1000 | 10 to 100 | 10 to 100 | 10 to 100 |  |  |  | 
11 | COc1c(C(=O)Nc2ccc(OCC(N)=O)cc2)cc(N2CCC(=O)NC2=O)cc1C(C)(C)C [IA-L3-1.39, N-(4-(2-amino-2-oxoethoxy)phenyl)-3-tert-butyl-5-(2,4-dioxotetrahydropyrimidin-1(2H)-yl)-2-methoxybenzamide] | > 1000 | 100 to 1000 | > 1000 | > 1000 |  |  |  | 
12 | CC(C)(C)c1cc(N2CCC(=O)NC2=O)cc(C(=O)Nc2cccc(NS(C)(=O)=O)c2)c1O [IA-L3-1.5, 3-tert-butyl-5-(2,4-dioxotetrahydropyrimidin-1(2H)-yl)-2-hydroxy-N-(3-(methylsulfonamido)phenyl)benzamide] | > 1000 | 10 to 100 | 100 to 1000 | > 1000 |  |  |  | 
13 | COc1c(C#Cc2ccc(NS(C)(=O)=O)c(F)c2Cl)cc(N2CCC(=O)NC2=O)cc1C(C)(C)C [IA-L2-1.21, N-(4-((3-tert-butyl-5-(2,4-dioxotetrahydropyrimidin-1(2H)-yl)-2-methoxyphenyl)ethynyl)-3-chloro-2-fluorophenyl)methanesulfonamide] | 10 to 100 | 10 to 100 | < 10 | < 10 |  |  |  | 
14 | COc1cc(NS(C)(=O)=O)ccc1/C=C/c1cc(N2CCC(=O)NC2=O)cc(C(C)(C)C)c1OC [IA-L1-1.27, N-(4-{(E)-2-[3-tert-Butyl-5-(dioxo-tetrahydro-pyrimidin-1-yl)-2-methoxy-phenyl]-vinyl}-3-methoxy-phenyl)-methanesulfonamide] |  |  |  |  | 10 to 100 | 10 to 100 | < 10 | < 10
15 | COc1c(C#Cc2ccc(NS(C)(=O)=O)c(C)c2)cc(N2CCC(=O)NC2=O)cc1C(C)(C)C [IA-L2-1.10, N-(4-((3-tert-butyl-5-(2,4-dioxotetrahydropyrimidin-1(2H)-yl)-2-methoxyphenyl)ethynyl)-2-methylphenyl)methanesulfonamide] | 100 to 1000 | 10 to 100 | 10 to 100 | 10 to 100 |  |  |  | 
16 | COc1c(CC(=O)c2ccc(NS(C)(=O)=O)cc2)cc(N2CCC(=O)NC2=O)cc1C(C)(C)C [IA-L12-1.1, N-(4-(2-(3-tert-butyl-5-(2,4-dioxotetrahydropyrimidin-1(2H)-yl)-2-methoxyphenyl)acetyl)phenyl)methanesulfonamide] | 100 to 1000 | 10 to 100 | 10 to 100 | 10 to 100 |  |  |  | 
17 | COc1cc(NS(C)(=O)=O)ccc1NC(=O)c1cc(N2CCC(=O)NC2=O)cc(C(C)(C)C)c1OC [IA-L3-1.85, 3-tert-butyl-5-(2,4-dioxotetrahydropyrimidin-1(2H)-yl)-2-methoxy-N-(2-methoxy-4-(methylsulfonamido)phenyl)benzamide] | 100 to 1000 | 100 to 1000 | 100 to 1000 | 100 to 1000 |  |  |  | 
18 | COc1ccc(OC)c(S(=O)(=O)Nc2ccc(NC(=O)c3cc(N4CCC(=O)NC4=O)cc(C(C)(C)C)c3OC)cc2)c1 [IA-L3-1.121, 3-tert-butyl-N-(4-(2,5-dimethoxyphenylsulfonamido)phenyl)-5-(2,4-dioxotetrahydro-pyrimidin-1(2H)-yl)-2-methoxybenzamide] | > 1000 | 100 to 1000 | 100 to 1000 | 100 to 1000 |  |  |  | 
19 | COc1cc(NS(C)(=O)=O)ccc1C#Cc1cc(N2CCC(=O)NC2=O)cc(C(C)(C)C)c1OC [IA-L2-1.16, N-(4-((3-tert-butyl-5-(2,4-dioxotetrahydropyrimidin-1(2H)-yl)-2-methoxyphenyl)ethynyl)-3-methoxyphenyl)methanesulfonamide] | 10 to 100 | 10 to 100 | < 10 | < 10 |  |  |  | 
20 | COc1c(C#Cc2ccc(NS(C)(=O)=O)c(Cl)c2)cc(N2CCC(=O)NC2=O)cc1C(C)(C)C [IA-L2-1.15, N-(4-((3-tert-butyl-5-(2,4-dioxotetrahydropyrimidin-1(2H)-yl)-2-methoxyphenyl)ethynyl)-2-chlorophenyl)methanesulfonamide] | 100 to 1000 | 10 to 100 | 10 to 100 | 100 to 1000 |  |  |  | 
21 | COc1c(C#Cc2ccc(NS(C)(=O)=O)cc2C)cc(N2CCC(=O)NC2=O)cc1C(C)(C)C [IA-L2-1.9, N-(4-((3-tert-butyl-5-(2,4-dioxotetrahydropyrimidin-1(2H)-yl)-2-methoxyphenyl)ethynyl)-3-methylphenyl)methanesulfonamide] | < 10 | < 10 | < 10 | < 10 |  |  |  | 
22 | CC(C)(C)c1cc(N2CCC(=O)NC2=O)cc(NC(=O)c2ccc(CS(C)(=O)=O)cc2)c1O [IA-L4-1.4, N-(3-tert-butyl-5-(2,4-dioxotetrahydropyrimidin-1(2H)-yl)-2-hydroxyphenyl)-4-(methylsulfonylmethyl)benzamide] | > 1000 | > 1000 | > 1000 | > 1000 |  |  |  | 
23 | COc1c(C(=O)Cc2ccc(NS(C)(=O)=O)cc2)cc(N2CCC(=O)NC2=O)cc1C(C)(C)C [IA-L11-1.1, N-(4-(2-(3-tert-butyl-5-(2,4-dioxotetrahydropyrimidin-1(2H)-yl)-2-methoxyphenyl)-2-oxoethyl)phenyl)methanesulfonamide] | 100 to 1000 | 10 to 100 | 10 to 100 | 10 to 100 |  |  |  | 
